Reference: patent publication US5565488A, “Oxalylamino-benzofuran- and benzothienyl-derivatives” (Bayer Aktiengesellschaft, priority 1994, dated 1996)

Tests used:
human PMN = assay: Inhibition of FMLP-stimulated production of superoxide radical anions; assay type: cell-based; conditions: Neutrophil, human neutrophils; for IC50: 4×10^-8 M FMLP
Method: 1. Preparation of human PMN
Blood was taken from healthy subjects by venous puncture and neutrophils were purified by dextran sedimentation and resuspended in the buffered medium.
2. Inhibition of FMLP-stimulated production of superoxide radical anions.
Neutrophils (2.5×10^5 ml^-1) were mixed with cytochrome C (1.2 mg/ml) in the wells of a microtitre plate. Compounds according to the invention were added in dimethyl sulphoxide (DMSO). Compound concentration ranged from 2.5 nM to 10 μM, the DMSO concentration was 0.1% v/v in all wells. After addition of cytochalasin b (5 μg×ml^-1) the plate was incubated for 5 min at 37° C. Neutrophils were then stimulated by addition of 4×10^-8 M FMLP and superoxide generation measured as superoxide dismutase inhibitable reduction of cytochrome C by monitoring the OD550 in a Thermomax microtitre plate spectrophotometer. Initial rates were calculated using a Softmax kinetic calculation programme. Blank wells contained 200 units of superoxide dismutase.
The inhibition of superoxide production was calculated as follows: [formula] Rx=Rate of the well containing the compound according to the invention. Ro=Rate in the control well.
Rb=Rate in the superoxide dismutase containing blank well.

FMLP-induced skin oedema = assay: Effect of intravenously administered compounds on the FMLP-induced skin oedema guinea pigs; assay type: in vivo; conditions: i.v., 1 mg/kg, guinea pig
Method: 5. Effect of intravenously administered compounds on the FMLP-induced skin oedema guinea pigs
Guinea pigs (600-800 g) were anaesthetized with pentobarbitone sodium (40 mg/kg, i.p.) and injected (i.v.) with a 0.5 ml mixture of pentamine sky blue (5% W/V) and ^125 I-HSA (1 μli/animal). 10 minutes later 3 intradermal injections of FMLP (10 μg/site), 1 injection of histamine (1 μg/site) and 1 injection of vehicle (100 μl of 0.2% DMSO V/V in Hanks Buffered salt solution) were made on the left hand side of the animal (preinjection sites). 5 minutes later the drug (1 ml/kg) or the vehicle (50% PEG 400 V/V in distilled water, […]) was administered (i.v.). 10 minutes later an identical pattern of interadermal injections was made on the opposite flank of the animal (post-injection sites). These responses were allowed-to develop for 15 minutes before the animal was sacrificed and a blood sample taken.
Skin sites and plasma samples were counted for 1 minute on a gamma counter an the degree of oedema calculated as μl plasma/skin site. Statistical analysis was done by a paired t-test on the mean of the 3 preinjection site values of μl plasma obtained for FMLP/animal. The percentage inhibition of drug or vehicle was calculated as follow

SMILES	inhibition at 10 µM (human PMN) [%]	IC50 (human PMN) [nM]	% inhibition (FMLP-induced skin oedema) [%]
COC(=O)CCc1c(C(=O)c2ccc(Cl)cc2)oc2cc(NC(=O)C(=O)OC)ccc12 [Example 1, 3-[2-(4-Chlorobenzoyl)-6-(2-methoxy-2-oxo-acetamido)-3-benzofuranyl]propanoic acid, methylester]	62	170	
CCOC(=O)C(=O)Nc1ccc2c(CCC(=O)OC)c(C(=O)c3ccc(Cl)cc3)oc2c1 [Example 7]	86	900	
CCOC(=O)C(=O)Nc1ccc2c(CCC(=O)OC)c(C(=O)c3ccncc3)oc2c1 [Example 344]	81	200	
CCOC(=O)C(=O)Nc1ccc2c(C)c(C(=O)c3ccc(C)cc3)oc2c1 [Example 6]	67	110	
CCOC(=O)C(=O)Nc1ccc2c(CCC(=O)OC)c(C(=O)c3ccc(C)cc3)oc2c1 [Example 2]			47
